The results in this text go back to the PolyMetriX glass transition set.

Counter-ions that a name gives are not always drawn. ± gives the standard deviation of the reports.

`*/C=C/C(C)C*` (repeat unit) returned a glass transition temperature of -35.00 °C. As for `*/C=C/C1CC(*)C(C#N)([Si](C)(C)O[Si](C)(C)O[Si](C)(C)C)C1` (repeat unit), the figure is 47.00 °C; as for `*/C=C/C1CC(*)C(C#N)C1` (repeat unit), 140.00 °C. For the molecule `*/C=C/C1CC(*)C(C(=O)OCCCCCCCCOc2ccc(/C=C/c3ccc([N+](=O)[O-])cc3)cc2)C1` (repeat unit), the glass transition temperature worked out at 51.00 °C. As for `*/C=C/C1CC(*)C([Si](C)(C)C)C1` (repeat unit), the figure is 113.00 °C; as for `*/C=C/c1cc(CCCCCCCCCC)c(/C=C/c2ccc(-c3ccc(*)nc3)cn2)cc1CCCCCCCCCC` (repeat unit), 68.00 °C; as for `*/C=C/c1cc(OCC(CC)CCCC)c(*)cc1-c1ccc(F)c(C(F)(F)F)c1` (repeat unit), 122.00 °C. To `*/C=C/c1cc(OCC(CC)CCCC)c(/C=C/c2cc(OC)c(*)cc2OC)cc1OC` (repeat unit) belongs 110.00 °C. To `*/C=C/c1cc(OCCCC)c(*)cc1OC` (repeat unit) belongs 65.00 °C; to `*/C=C/c1cc(OCCCCCCCCCCCC)c(*)cc1OC` (repeat unit), 36.00 °C; to `*/C=C/c1cc(OCCc2ccccc2)c(*)cc1OC` (repeat unit), 121.00 °C. As to `*/C=C/c1ccc(-c2nnc(-c3ccc(/C=C/c4ccc5c(c4)c4cc(*)ccc4n5CCCCCCCC)cc3)n2-c2ccccc2)cc1` (repeat unit), the glass transition temperature came out at 147.00 °C. As for `*/C=C/c1ccc(-c2nnc(-c3ccc(/C=C/c4ccc5c(c4)c4cc(-c6ccc7c(c6)c6cc(*)ccc6n7CCCCCCCC)ccc4n5CCCCCCCC)cc3)n2-c2ccccc2)cc1` (repeat unit), the figure is 157.00 °C. As for `*/C=C/c1ccc(/C=C/[Si](C)(C)c2cccc([Si](*)(C)C)c2)cc1` (repeat unit), the figure is 33.00 °C; as for `*C/C=C/C(CC)S(*)(=O)=O` (repeat unit), 70.10 °C; as for `*CCCCCCCCCCCCOc1c(OC)cc(/C=C/c2ccc(/C=C/c3cc(OC)c(O*)c(OC)c3)cc2)cc1OC` (repeat unit), 61.10 °C. `*CCCCCCCCOc1c(OC)cc(/C=C/c2ccc(/C=C/c3cc(OC)c(O*)c(OC)c3)cc2)cc1OC` (repeat unit): the glass transition temperature came out at 69.40 °C. With `*CCCCCCCCOc1ccc(/C=C2\CCC/C(=C\c3ccc(O*)cc3)C2=O)cc1` (repeat unit), the glass transition temperature was 90.00 °C. As for `*CCOCCOCCOCCOc1ccc(/C=C(\C)c2ccc(O*)cc2)cc1` (repeat unit), the glass transition temperature came to 7.50 °C. In the case of `*Nc1ccc(Cc2ccc(NC(=O)/C=C/c3ccc(/C=C/C(*)=O)cc3)cc2)cc1` (repeat unit), the glass transition temperature was 230.00 °C.

Molecule `*Oc1ccc(OC(=O)/C=C/c2ccc(/C=C/C(*)=O)cc2)cc1` (repeat unit) yielded a glass transition temperature of 210.00 °C. `*c1cccc(N/C=C/C(=O)c2cccc(C(=O)/C=C/Nc3cccc(S(*)(=O)=O)c3)c2)c1` (repeat unit) had a glass transition temperature of 215.00 °C. In turn, `*CC(*)(C)C(=O)OCCC(C)(C)C` (repeat unit) [Poly(3,3-dimethylbutyl methacrylate)] came in with a glass transition temperature of 45 ± 1.2 °C. For `*CC(COC)O*` (repeat unit) [Poly(3-methoxypropylene oxide) ], the glass transition temperature was -62 ± 1.2 °C. `*CC(*)c1ccc(O)cc1` (repeat unit) [Poly(4-hydroxystyrene)] returned a glass transition temperature of 157.42 ± 0.8 °C. Consider `*Oc1ccc(C(C)(C)c2ccc(OC(=O)c3ccc(C(*)=O)cc3)cc2)cc1` (repeat unit) [Poly(Bisphenol A terephthalate)], for which the glass transition temperature is 199.92 ± 1.5 °C. `*CC(*)C(=O)NC(C)(C)C` (repeat unit) [Poly(N-tert-butyl acrylamide)] gave a glass transition temperature of 131.42 ± 5.1 °C.

With `*CC(*)(C)C(=O)OCc1ccccc1` (repeat unit) [Poly(benzyl methacrylate)], the glass transition temperature was determined as 54.00 ± 0.5 °C. `*Oc1ccc(C(C)(C)c2ccc(OC(=O)c3cccc(C(*)=O)c3)cc2)cc1` (repeat unit) [Poly(bisphenol A isophthalate)] yielded a glass transition temperature of 184.42 ± 6.3 °C. To `*CC(*)OCCCC` (repeat unit) [Poly(butyl vinyl ether)] belongs -52.08 ± 1.5 °C; to `*CC(*)CC` (repeat unit) [Poly(butylene)], -36.6 ± 12 °C; to `*CCCCCC(=O)O*` (repeat unit) [Poly(caprolactone)], 55.0 ± 78 °C.

In turn, `*C(F)(F)C(*)(F)Cl` (repeat unit) [Poly(chlorotrifluoroethylene)] had a glass transition temperature of 69.47 ± 25 °C. As for `*CC(*)(C)C(=O)OC1CCCCC1` (repeat unit) [Poly(cyclohexyl methacrylate)], the figure is 101.92 ± 20 °C. As for `*CC(*)(C)C(=O)OCCCCCCCCCC` (repeat unit) [Poly(decyl methacrylate)], the figure is -63.83 ± 1 °C; as for `*CCCCCCCCCCCC(=O)N*` (repeat unit) [Poly(dodecano-12-lactam)], 38.4 ± 3.2 °C; as for `*CCOC(=O)c1ccc2cc(C(=O)O*)ccc2c1` (repeat unit) [Poly(ethylene 2,6-naphthalate)], 121.42 ± 2.3 °C. `*CCOC(=O)O*` (repeat unit) [Poly(ethylene carbonate)] had a glass transition temperature of 10.92 ± 8.4 °C. For the molecule `*CCO*` (repeat unit) [Poly(ethylene glycol)], the glass transition temperature is -15.6 ± 42 °C. For `*CCOC(=O)c1ccc(C(=O)O*)cc1` (repeat unit) [Poly(ethylene terephthalate)], the glass transition temperature is 75 ± 3.5 °C. On to `*CC*` (repeat unit) [Poly(ethylene)], for which the glass transition temperature is -54.00 ± 89 °C. On to `*CCOC(=O)c1ccc(C(=O)O*)c2ccccc12` (repeat unit) [Poly(ethylene- 1 ,4-naphthalenedicarboxylate) ], for which the glass transition temperature turned out to be 64 ± 1.2 °C.

For the molecule `*CC(*)C(=O)OCC(C)C` (repeat unit) [Poly(isobutyl acrylate) ], the glass transition temperature is -24 ± 30 °C. `*CC(*)OCC(C)C` (repeat unit) [Poly(isobutyl vinyl ether)] returned a glass transition temperature of -22.08 ± 2.5 °C.

In the case of `*CCc1ccc(*)c(C)c1` (repeat unit) [Poly(methyl-p-xylylene) ], the glass transition temperature came out at 55 ± 1.9 °C. With `*CC(*)(C)C(=O)OCCC` (repeat unit) [Poly(n-propyl methacrylate) ], the glass transition temperature was 35 ± 5.4 °C. The molecule `*CC(*)(C)C(=O)OCC(C)(C)C` (repeat unit) [Poly(neopentyl methacrylate) ] had a glass transition temperature of 33 ± 3.7 °C. As to `*CC(*)OCCCCCCCC` (repeat unit) [Poly(octyl vinyl ether)], the glass transition temperature is -79.83 ± 0.9 °C. As for `*CC(CCl)(CCl)CO*` (repeat unit) [Poly(oxy-2,2-dichloromethyltrimethylene) ], the figure is -8 ± 10 °C. Take `*CCC(C)CCC(=O)O*` (repeat unit) [Poly(oxycarbonyl-3-methylpentamethylene) ]: the glass transition temperature is -53 ± 0.6 °C. Consider `*CC(*)c1ccc(OC)cc1` (repeat unit) [Poly(p-methoxy styrene) ], for which the glass transition temperature was found to be 89 ± 12 °C. `*CC(*)c1ccc(C)cc1` (repeat unit) [Poly(p-methyl styrene) ] yielded a glass transition temperature of 101 ± 1.6 °C.

For the molecule `*CC(*)c1ccc(C(C)(C)C)cc1` (repeat unit) [Poly(p-t-butyl styrene)], the glass transition temperature turned out to be 129 ± 5.6 °C. To `*CCc1ccc(*)cc1` (repeat unit) [Poly(p-xylene)] belongs 70 ± 10 °C; to `*CC(*)C(=O)c1ccccc1` (repeat unit) [Poly(phenyl vinyl ketone)], 60.80 ± 17 °C; to `*CC(C)O*` (repeat unit) [Poly(propylene glycol)], -69.18 ± 2.6 °C.

Regarding `*CCCCO*` (repeat unit) [Poly(tetramethylene glycol)], the glass transition temperature is -83.6 ± 2.2 °C. To `*CCCCOC(=O)c1cccc(C(=O)O*)c1` (repeat unit) [Poly(tetramethylene isophthalate)] belongs 21.42 ± 3.4 °C; to `*CC(*)O` (repeat unit) [Poly(vinyl alcohol)], 79.67 ± 32 °C. Molecule `*CC(*)Cl` (repeat unit) [Poly(vinyl chloride)] showed a glass transition temperature of 78.42 ± 2.2 °C. As to `*CC(*)C1CCCC1` (repeat unit) [Poly(vinyl cyclopentane) ], the glass transition temperature was determined as 75 ± 0.6 °C. `*CC(*)OC(C)CC` (repeat unit) [Poly(vinyl sec-butyl ether) ] had a glass transition temperature of -22 ± 3 °C. As for `*CC(*)OC(=O)C(F)(F)F` (repeat unit) [Poly(vinyl trifluoroacetate) ], the figure is 46 ± 5.6 °C; as for `*CC(*)(F)F` (repeat unit) [Poly(vinylidene fluoride)], -32.77 ± 2.3 °C. As for `*CC/C=C(/*)Cl` (repeat unit) [Polychloroprene ], the figure is -48 ± 18 °C.

`*CO*` (repeat unit) [Polyoxymethylene ] had a glass transition temperature of -56 ± 8.9 °C. As for `*CCCO*` (repeat unit) [Polyoxytrimethylene ], the figure is -78 ± 3 °C. The molecule `*CC(*)c1ccc(OC(C)=O)cc1` (repeat unit) [poly(4-acetoxystyrene)] displayed a glass transition temperature of 121.42 ± 12 °C.
